Data taken from US20110319431A1, “Bis Aromatic Compounds for Use as LTC4 Synthase Inhibitors” (BIOLIPOX AB, priority 2009, published 2011).

Target: T1, Recombinant human LTC4 synthase (Homo sapiens, UniProt Q16873)
T1 construct: made in house; host or cells: Pichia pastoris
T1 sequence (Q16873 1-150): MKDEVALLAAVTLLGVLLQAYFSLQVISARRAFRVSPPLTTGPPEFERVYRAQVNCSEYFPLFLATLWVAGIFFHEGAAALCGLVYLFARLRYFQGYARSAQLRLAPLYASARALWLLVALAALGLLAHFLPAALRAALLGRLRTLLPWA
Assay: In vitro LTC4 synthase assay (LTA4 to LTC4, HTRF detection)
Assay type: biochemical
Conditions: for inhibition at 10 µM: 5 min, total concentration of title compounds in the assay 10 μM; for IC50: title compounds of the Examples
Experimental: In the assay, LTC4 synthase catalyses the reaction where the substrate LTA4 is converted to LTC4. Recombinant human LTC4 synthase is expressed in Piccia pastoralis and the purified enzyme is dissolved in 25 mM tris-buffer pH 7.8 supplemented with 0.1 mM glutathione (GSH) and stored at −80° C. The assay is performed in phosphate buffered saline (PBS) pH 7.4 and 5 mM GSH in 384-well plates.
The following is added chronologically to each well:
1. 48 μL LTC4 synthase in PBS with 5 mM GSH. The total protein concentration in this solution is 0.5 μg/mL. 2. 1 μL inhibitor in DMSO (final concentration 10 μM). 3. Incubation of the plate at room temperature for 10 min. 4. 1 μL LTA4 (final concentration 2.5 μM). 5. Incubation of the plate at room temperature for 5 min. 6. 10 μL of the incubation mixture is analysed using homogenous time resolved fluorescent (HTRF) detection.

| inhibition at 10 µM | IC50 | Structure (SMILES) |
| --- | --- | --- |
| 100% | 107 nM | CN(c1ccc(Cl)cc1)c1ccc(C(=O)c2ccc([S+]([O-])c3ccc(F)c(F)c3)c(C(=O)O)c2)cc1 (stereo not shown) [1:3, 5-{4-[(4-Chlorophenyl)(methyl)amino]benzoyl}2-(3,4-difluorophenylsulfinyl)-benzoic acid] |
|  | 161 nM | CN(c1ccc(Cl)cc1)c1ccc(C(=O)c2ccc([S+]([O-])C3CCCC3)c(C(=O)O)c2)cc1 (stereo not shown) [1:4, 5-{4-[(4-Chlorophenyl)(methyl)amino]benzoyl}-2-(cyclopentylsulfinyl)benzoic acid] |
|  | 134 nM | CN(c1ccc(Cl)cc1)c1ccc(C(=O)c2ccc([S+]([O-])C3CCCCC3)c(C(=O)O)c2)cc1 (stereo not shown) [1:5, 5-{4-[(4-Chlorophenyl)(methyl)amino]benzoyl}-2-(cyclohexylsulfinyl)benzoic acid] |
|  | 96 nM | CN(c1ccc(Cl)cc1)c1ccc(C(=O)c2ccc([S+]([O-])C34CC5CC(CC(C5)C3)C4)c(C(=O)O)c2)cc1 (stereo not shown) [1:6, 2-(1-Adamantylsulfinyl)-5-{4-[(4-chlorophenyl)methylamino]benzoyl}benzoic acid] |
|  | 160 nM | CCCC[S+]([O-])c1ccc(C(=O)c2ccc(N(C)c3ccc(Cl)cc3)cc2)cc1C(=O)O (stereo not shown) [1:7, 2-(1-Butylsulfinyl)-5-{4-[(4-chlorophenyl)(methyl)amino]benzoyl}benzoic acid] |
|  | 82 nM | CN(c1ccc(Cl)cc1)c1ccc(C(=O)c2ccc([S+]([O-])c3ccccc3)c(C(=O)O)c2)cc1 (stereo not shown) [1:8, 5-{4-[(4-Chlorophenyl)(methyl)amino]benzoyl}-2-(phenylsulfinyl)benzoic acid] |
|  | 109 nM | CN(c1ccc(Cl)cc1)c1ccc(C(=O)c2ccc([S+]([O-])Cc3ccccc3)c(C(=O)O)c2)cc1 (stereo not shown) [1:9, 2-(Benzylsulfinyl)-5-{4-[(4-chlorophenyl)(methyl)amino]benzoyl}benzoic acid] |
|  | 86 nM | CN(c1ccc(Cl)cc1)c1ccc(C(=O)c2ccc([S+]([O-])CC34CCC(CC3O)C4(C)C)c(C(=O)O)c2)cc1 (stereo not shown) [1:10, 5-{4-[(4-Chlorophenyl)(methyl)amino]benzoyl}-2-[(2-hydroxy-7,7-dimethyl-bicyclo[2.2.1]-1-heptyl)methylsulfinyl]benzoic acid] |
|  | 28 nM | O=C(c1ccc([S+]([O-])c2cccc(C(F)(F)F)c2)c(C(=O)O)c1)c1ccc(N(CC2CC2)c2ccc(Cl)cc2)cn1 (stereo not shown) [1:15, 5-{5-[(4-Chlorophenyl)cyclopropylmethylamino]pyridine-2-carbonyl}-2-(3-tri-fluoromethylphenylsulfinyl)benzoic acid] |
|  | 35 nM | CCCCCC[S+]([O-])c1ccc(C(=O)c2ccc(N(CC3CC3)c3ccc(Cl)cc3)cn2)cc1C(=O)O (stereo not shown) [1:16, 5-{5-[(4-Chlorophenyl)cyclopropylmethylamino]pyridine-2-carbonyl}-2-(1-hexyl-sulfinyl)benzoic acid] |
|  | 34 nM | O=C(c1ccc([S+]([O-])c2ccc(Br)cc2)c(C(=O)O)c1)c1ccc(N(CC2CC2)c2ccc(Cl)cc2)cn1 (stereo not shown) [1:17, 2-(4-Bromophenylsulfinyl)-5-{5-[(4-chlorophenyl)cyclopropylmethylamino]-pyridine-2-carbonyl}benzoic acid] |
|  | 31 nM | O=C(c1ccc([S+]([O-])c2cccc(Cl)c2)c(C(=O)O)c1)c1ccc(N(CC2CC2)c2ccc(Cl)cc2)cn1 (stereo not shown) [1:18, 2-(3-Chlorophenylsulfinyl)-5-{5-[(4-chlorophenyl)cyclopropylmethylamino]-pyridine-2-carbonyl}benzoic acid] |
| 96% | 51 nM | CN(c1ccc(Cl)cc1)c1ccc(C(=O)c2ccc(Sc3ccc(F)c(F)c3)c(C(=O)O)c2)cc1 [2:3, 5-{4-[(4-Chlorophenyl)(methyl)amino]benzoyl}-2-(3,4-difluorophenyl-sulfanyl)benzoic acid] |
|  | 130 nM | CN(c1ccc(Cl)cc1)c1ccc(C(=O)c2ccc(SCC34CCC(CC3O)C4(C)C)c(C(=O)O)c2)cc1 (stereo not shown) [2:4, 5-{4-[(4-Chlorophenyl)methylamino]benzoyl}-2-(2-hydroxy-7,7-dimethyl-bicyclo[2.2.1]-1-heptylmethylsulfanyl)benzoic acid] |
